This series concerns HeLa cells. The experiment in a line: Kinetic imaging of NBD-triazine probe uptake and sequestration, fitted to nested two-compartment transport model. Type of series: cell-based. The following applies: median over optimal solutions within 5% of the best fit. Here is the method: In living cells, image data was simultaneously acquired with an automated, high-content, kinetic screening instrument equipped with an environmental chamber (see, e.g., V. C. Abraham, D. L. Taylor and J. R. Haskins, Trends in Biotechnology 22, 15 (2004); herein incorporated by reference in its entirety), as cells were incubated with the fluorescent molecules and after removal of extracellular probe. Data was analyzed off line, using an image analysis algorithm to measure the statistical pixel intensity distribution associated with fluorescence probe sequestration in the perinuclear region (see, e.g., FIG. 21; see also, e.g., G. J. Ding et al., Journal of Biological Chemistry 273, 28897 (1998); herein incorporated by reference in its entirety). Data was parametrized with a nested, two-compartment, transport model (see, e.g., W. E. Evans, J. J. Schentag and W. J. Jusko., Applied Pharmacokinetics: Principles of Therapeutic Drug Monitoring (Lippincott Williams & Wilkins, Vancouver, W.A., 1992); herein incorporated by reference in its entirety), using a statistical link function to relate the kinetic coefficient of variation (CV) of pixel intensities in the images with the concentration of probe in vesicles and cytoplasm. Optimal kinetic parameters fitting the experimental data for each probe to the system described by the two-compartment model and statistical link function were determined using the simulated annealing technique (see, e.g., M. Pincus., Oper. Res. 18, 1225 (1979); herein incorporated by reference in its entirety). The present invention is not limited to a particular mechanism. Indeed, an understanding of the mechanism is not necessary to practice the present invention.
To assess how well the model accounts for all the different kinetic traces acquired, a “PVE” (proportion of variance explained) by the model was calculated. The PVE is one minus the ratio of the sum of squared differences between observed and fitted values to the sum of squared differences between observed values and their mean. PVE values close to one indicate good fit to the nested two-compartment model. The average PVE across the probes was 0.92, with >50% of the probes yielded PVE values […]. The present invention is not limited to a particular mechanism. Indeed, an understanding of the mechanism is not necessary to practice the present invention.
Cell culture. HeLa cells were grown in RPMI+10% FCS in a 5% CO2 atmosphere at 37° C. and plated in 96-well plates at a density of 3000 cells/well 24 hours prior to the start of the experiment.
Kinetic Imaging. For influx experiments, cells on 96-well plates were switched to imaging media consisting of RPMI containing 1.0 mM Bromophenol Blue—a soluble, cell-impermeant chromophore used to suppress excitation and emission of extracellular (background) dye fluorescence-, 10 μM probe and 0.1 μM Hoescht 33258 to label the cell nuclei. Plates were then transferred to a KineticScan instrument (Cellomics, Inc., Pittsburgh, Pa.), which contains an environmentally controlled CO2/temperature/humidity chamber, and data was acquired with a 20× objective lens. Images acquisition began approximately 10 min after dye addition, using the Hoescht channel to acquire nuclear images and FITC channel to acquire the NBD image. Plate-scanning mode was used for scanning, in which the instrument builds time-stacks of images by scanning the plate multiple times, returning to the same site of the plate at every scan. For efflux experiments, dye-containing media was removed from the wells of the plate. The wells were washed twice with fresh RPMI medium, imaging media was added, and image acquisition restarted 7 min after the dye-containing media was removed. The last time points of the influx experiment served as the first time point of the efflux experiment. Plates were scanned for approximately two hours in the influx experiment and six hours for the efflux experiment, with each well imaged on average every 7 minutes. […]
For the compound `O=[N+]([O-])c1ccc(NCCCCCCNc2nc(NCCc3ccccn3)nc(NCc3cccc(F)c3)n2)c2nonc12` [Compound E9], the “median Pap(cyto) (apparent partition coefficient between extracellular medium and cytosol)” value (shortened to “median Pap(cyto)”) is reported as 225.98; the “median Pap(ves) (apparent partition coefficient between cytosol and intracellular vesicles, k(ves)in/k(ves)out)” value (from here on “median Pap(ves)”) is on record as 0.37.
As to `CCCCCCCCNc1nc(NCCCCCCNc2ccc([N+](=O)[O-])c3nonc23)nc(NCc2ccc(C)cc2)n1` [Compound G3], the “median Pap(cyto)” value is 0.95; the “median Pap(ves)” value came out at 43.97.
Consider `O=[N+]([O-])c1ccc(NCCCCCCNc2nc(NCCC(c3ccccc3)c3ccccc3)nc(NCC3CCCCC3)n2)c2nonc12` [Compound F6], for which the “median Pap(cyto)” value is reported as 6.76; the “median Pap(ves)” value was 19.41.
For the compound `CC1CCCCC1Nc1nc(NCCCCCCNc2ccc([N+](=O)[O-])c3nonc23)nc(NCCC(c2ccccc2)c2ccccc2)n1` (stereo not shown) [Compound F5], the “median Pap(cyto)” value came to 6.71; the “median Pap(ves)” value was 21.53.
Regarding `CCCCNc1nc(NCCCCCCNc2ccc([N+](=O)[O-])c3nonc23)nc(NCc2ccc(C)cc2)n1` [Compound G1], the “median Pap(cyto)” value was 12.30; the “median Pap(ves)” value is recorded as 12.14.
For `O=[N+]([O-])c1ccc(NCCCCCCNc2nc(NCc3ccccc3)nc(NCC3CCCCC3)n2)c2nonc12` [Compound A6], the “median Pap(cyto)” value stood at 151.26; the “median Pap(ves)” value came out at 0.30.
For the compound `O=[N+]([O-])c1ccc(NCCCCCCNc2nc(NCc3ccccc3)nc(NC3CCCCC3)n2)c2nonc12` [Compound A7], the “median Pap(cyto)” value is 7.55; the “median Pap(ves)” value is recorded as 33.83.
The corresponding values for `COc1ccc(CNc2nc(NCCCCCCNc3ccc([N+](=O)[O-])c4nonc34)nc(NC3CCC(C)CC3)n2)cc1` (stereo not shown) [Compound C4] are 22.58 and 9.87.
The corresponding values for `Cc1ccc(CNc2nc(NCCCCCCNc3ccc([N+](=O)[O-])c4nonc34)nc(NC3CCCCC3)n2)cc1` [Compound G7] are 6.63 and 29.18.
As for `CC(C)Nc1nc(NCCCCCCNc2ccc([N+](=O)[O-])c3nonc23)nc(NCc2cccc(F)c2)n1` [Compound E2], the “median Pap(cyto)” value amounted to 49.62; the “median Pap(ves)” value worked out at 8.43.
As to `O=[N+]([O-])c1ccc(NCCCCCCNc2nc(NCc3cccc(F)c3)nc(NCC3CCCCC3)n2)c2nonc12` [Compound E6], the “median Pap(cyto)” value is given as 10.29; the “median Pap(ves)” value is 20.28.
The corresponding values for `CC1CCCCC1Nc1nc(NCCCCCCNc2ccc([N+](=O)[O-])c3nonc23)nc(NCc2cccc(F)c2)n1` (stereo not shown) [Compound E5] are 5.98 and 29.55.
`COc1cccc(CNc2nc(NCCCCCCNc3ccc([N+](=O)[O-])c4nonc34)nc(NCCc3ccccc3)n2)c1` [Compound B10]: the “median Pap(cyto)” value was determined as 8.21; the “median Pap(ves)” value stood at 27.03.
With `CCCCCCCCNc1nc(NCCCCCCNc2ccc([N+](=O)[O-])c3nonc23)nc(NCc2ccc(OC)cc2)n1` [Compound C3], the “median Pap(cyto)” value is listed as 5.74; the “median Pap(ves)” value was determined as 26.52.

For the origin of these results see US20070111251A1, “Chemical address tags” (priority 2003, published 2007).
